Among the data in PubChem BioAssay AID2060622 (Molecular Pharmacology Branch, DTP, NCI, 2025) are viability, T/C and IC50 values, retold here.

Usually viability, T/C stands for the result in the treated group divided by that in the control group, in per cent. One may read the pIC50 as the negative decadic logarithm of the IC50, by convention in mol/L.

pIC50: −log10 of the molar value. Several values for one entry are separate records, joined by “and”; a condition that tells them apart may be missing. Equal entries are not always repeated. Where only a bound is given, the exact number is not on record here.

This test concerns 242566-281-R-J2-PDC complex spheroid viability. As to the kind of experiment: Anticancer human tumor 242566-281-R-J2-PDC patient-derived pancreatic carcinoma cell line growth inhibition [CLK]. Particulars: for viability, T/C: stronger effect = lower value. The text has this:
A high-throughput screen of multi-cell type tumor spheroids was designed to identify active combinations of […] and targeted small molecules. Complex spheroids include a stromal component modeled by human endothelial cells (HUVEC) and fibroblasts modeled by human mesenchymal stem cells (MSCs). The concentration ranges selected for each drug and investigational agent were based upon clinically achievable concentrations if the clinical Cmax of the agent was known.
Compounds. The drugs and investigational agents: cirtuvivint (SM08502; NSC835563), CC-671 (NSC850746), vemurafenib (NSC761431), tapotoclax (NSC804041), sotorasib (NSC818433), adagrasib (NSC831453), MRTX-1133 (NSC836407), BAY2416964 (NSC825713), copanlisib (NSC816437), inavolisib (NSC800729), abemaciclib (NSC768073), osimertinib (NSC779217), entinostat (NSC756642), eltanexor (KPT-8602, NSC794443), venetoclax (NSC766270), ceralasertib (NSC777638), bortezomib (NSC756655), olaparib (NSC753686), talazoparib (NSC767125), alisertib (NSC759677), peposertib (NSC802822), gemcitabine (NSC613327), 5-fluorouracil (NSC19893), SN-38 (NSC673596), oxaliplatin (NSC266046), paclitaxel (NSC125973), and doxorubicin (NSC123127), were obtained from the National Cancer Institute (NCI) Developmental Therapeutics Program Chemical Repository. The FDA-approved anticancer drug set is available from the Developmental Therapeutics Program at https://dtp.cancer.gov/organization/dscb/obtaining/available plates.htm. […] The stock solutions were prepared in dimethyl sulfoxide (DMSO, Sigma-Aldrich, St. Louis, MO, cat. D2650), except for the platinum complexes which were prepared in saline (Quality Biological, Gaithersburg, MD, cat. 114-055-101), at 800-fold the tested concentration and stored at -70 degrees C prior to their use. All drugs and investigational agents were tested over a range starting from a high concentration at or near the clinical Cmax and decreasing in half-log increments. If the clinical Cmax for an agent had not been determined, the highest concentration tested was 10 microM.
Cell Culture. All cells were maintained in an incubator at 37 degrees C and 5% CO2 with 95% humidity. The PDC lines were cultured according to standard operating procedures established by the NCI PDMR. Briefly, all PDCs were thawed and cultured in Matrigel-coated flasks prepared with a working solution of 1X Ham's F-12 nutrient mix, without supplementation (Invitrogen, Waltham, MA, cat. 11765054), 100 U/mL penicillin-streptomycin (Invitrogen, cat. 15140122), and 2.5% Matrigel (Corning Inc., Corning, NY, cat. 354248) for the first three passages. The 947758-054-R-J2-PDC line was cultured in 6B/Colon 1A media, which includes advanced DMEM/F-12 (Thermo Fisher Scientific, cat. 12634028), 10 mM HEPES (Thermo Fisher Scientific, cat. 15630080), 1X GlutaMAX supplement (Thermo Fisher Scientific, cat. 35050061), 0.1 mg/mL primocin (InvivoGen, cat. ant-pm-2), 10% defined fetal bovine serum, heat inactivated (HyClone Laboratories Inc., cat. SH30070.03HI), 1.25 mM N-Acetyl-L-cysteine (Sigma-Aldrich, cat. A9165), 10 mM nicotinamide (Sigma-Aldrich, cat. N0636), 1X B-27 supplement (Thermo Fisher Scientific, cat. 17504044), 1X N-2 supplement (Thermo Fisher Scientific, cat. 17502048), and 10 microM Y-27632 dihydrochloride (Tocris Bioscience, cat. 1254). The 876862-298-R-J1-PDC was cultured in 6E media, which includes all 6B/Colon 1A media components plus 50% L-WRN conditioned media (ATCC, cat. CRL-3276), 50 ng/mL recombinant human EGF recombinant protein (hEGF; Thermo Fisher Scientific, cat. PHG0311), 10 ng/mL recombinant human fibroblast growth factor 10 (hGFG-10; PeproTech, cat. 100-26), 1 ng/mL recombinant human fibroblast growth factor 2 (hFGF-2; PeproTech, cat. 100-18B), and 1 µM prostaglandin E2 (PGE2; Tocris, cat. 2296). The 227483-062-R1-J1-PDC line was cultured in Panc media, containing all 6E components except hFGF-2, with the addition of 500 nM SB-431542 (Selleckchem, cat. S1067) and 10 nM gastrin (Tocris, cat. 3006). […]
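Note: spheroids exposed to compounds for 7 days before readout.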
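Throughout, for viability, T/C: 100% = DMSO vehicle control wells.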

For the molecule `CC(=O)O[C@H]1C(=O)[C@@]2(C)[C@H]([C@H](OC(=O)c3ccccc3)[C@]3(O)C[C@H](OC(=O)[C@H](O)[C@@H](NC(=O)c4ccccc4)c4ccccc4)C(C)=C1C3(C)C)[C@]1(OC(C)=O)CO[C@@H]1C[C@@H]2O`, the viability, T/C (compound 0.0316 µM) was 34.2% and 57.7%; the viability, T/C (compound 0.1 µM) is 33.9% and 45%; the viability, T/C (compound 0.316 µM) is 28.5% and 35.4%; the viability, T/C (compound 1 µM) was 23.9% and 38.6%; the viability, T/C (compound 3.16 µM) was 32.5% and 40%; the viability, T/C (compound 10 µM) is 34.1% and 56.3%. The pIC50 (curve of compound) is > 7.50 and 7.22.

For `CC1COCCN1c1cc(C2(S(C)(=N)=O)CC2)nc(-c2ccnc3[nH]ccc23)n1` (stereo not given), the viability, T/C was 108% and 90.3% (compound 0.0316 µM); 104% and 84.2% (compound 0.1 µM); 106% and 81% (compound 0.316 µM); 108% and 90.7% (compound 1 µM); 75.2% and 90.5% (compound 3.16 µM); 37.9% and 60.6% (compound 10 µM). The pIC50 (curve of compound) was 5.16 and < 5.00.

`CNC(=O)c1ccc(Nc2nc(OC3CCCC3)c3c(-c4ccc5nc(C)oc5c4)c[nH]c3n2)c(OC)c1`: the viability, T/C runs as follows: (compound 1 µM) 69.1% [middle of 12 runs]; (compound 3.16 µM) 61% [middle of 12 runs]; (compound 10 µM) 55.9% [middle of 12 runs]. In addition, the pIC50 (compound alone, run of 08/01/2023) was < 5.00 and 5.58.

`COc1ccc([C@@H](O)c2cc(-c3ncnc4cc(N5CCOCC5)ccc34)c(F)cc2Cl)nn1`: the viability, T/C is, setting by setting: (compound 0.0316 µM) 112% and 89.3%; (compound 0.1 µM) 111% and 92.2%; (compound 0.316 µM) 96.7% and 104%; (compound 1 µM) 83.7% and 91.3%; (compound 3.16 µM) 77.1% and 92.4%; (compound 10 µM) 48.2% and 71.3%. Further, where the note is “curve of compound”, the pIC50 was less than 5.00.

Take `COc1cccc2c1C(=O)c1c(O)c3c(c(O)c1C2=O)CC(O)(C(=O)CO)CC3OC1CC(N)C(O)C(C)O1` (stereo not given): the viability, T/C by setting is: (compound 0.0316 µM) 66.3% and 79%; (compound 0.1 µM) 41.5% and 64.7%; (compound 0.316 µM) 15.3% and 35.8%; (compound 1 µM) 7.56% and 20.2%; (compound 3.16 µM) 1.88% and 6.69%; (compound 10 µM) 1.33% and 1.37%. Besides, the pIC50 (curve of compound) is 7.18 and 6.74.

`Nc1ccn(C2OC(CO)C(O)C2(F)F)c(=O)n1` (stereo not given): the viability, T/C reads like this: (compound 0.0316 µM) 39.5% and 87%; (compound 0.1 µM) 16.9% and 43.3%; (compound 0.316 µM) 11.7% and 21.3%; (compound 1 µM) 9.16% and 13.8%; (compound 3.16 µM) 7.63% and 10.3%; (compound 10 µM) 6.49% and 9.77%. The pIC50 (curve of compound) is > 7.50 and 7.08.

For the molecule `O=C(c1cc(Cc2n[nH]c(=O)c3ccccc23)ccc1F)N1CCN(C(=O)C2CC2)CC1`, the viability, T/C (compound 0.0316 µM) is 107% and 93.5%; the viability, T/C (compound 0.1 µM) is 97.4% and 85.4%; the viability, T/C (compound 0.316 µM) is 96.3% and 82.3%; the viability, T/C (compound 1 µM) is 102% and 94.1%; the viability, T/C (compound 3.16 µM) was 87.1% and 111%; the viability, T/C (compound 10 µM) was 72.5% and 75.4%. The pIC50 (curve of compound) was less than 5.00.

Turning to `O=c1[nH]cc(F)c(=O)[nH]1`, the viability, T/C was 103% and 83.7% (compound 0.0316 µM); 104% and 86% (compound 0.1 µM); 95.3% and 77.2% (compound 0.316 µM); 67.9% and 91.2% (compound 1 µM); 56.6% and 65% (compound 3.16 µM); 52.4% and 53.3% (compound 10 µM). For the same molecule, the pIC50 (curve of compound) is less than 5.00.

For the molecule `CCCS(=O)(=O)Nc1ccc(F)c(C(=O)c2c[nH]c3ncc(-c4ccc(Cl)cc4)cc23)c1F` + CN1CCN(c2cc(C(=O)Nc3cc4cc(-c5cnn(C)c5)ccc4cn3)ccn2)CC1, the pIC50 was 5.24 (curve of first compound, second compound 0.0316 µM); 5.25 (curve of first compound, second compound 0.1 µM); more than 7.50 (curve of first compound, second compound 0.316 µM); more than 7.50 (curve of first compound, second compound 1 µM); more than 7.50 (curve of first compound, second compound 3.16 µM); more than 7.50 (curve of first compound, second compound 10 µM). Moreover, the viability, T/C is, setting by setting: (second compound 0.0316 µM, first compound 0.0316 µM) 98.8%; (second compound 0.0316 µM, first compound 0.1 µM) 93.1%; (second compound 0.0316 µM, first compound 0.316 µM) 96.3%; (second compound 0.0316 µM, first compound 1 µM) 126%; (second compound 0.0316 µM, first compound 3.16 µM) 97.3%; (second compound 0.0316 µM, first compound 10 µM) 7.56%. In addition, the viability, T/C was 84.8% (second compound 0.1 µM, first compound 0.0316 µM); 102% (second compound 0.1 µM, first compound 0.1 µM); 87.5% (second compound 0.1 µM, first compound 0.316 µM); 109% (second compound 0.1 µM, first compound 1 µM); 89.6% (second compound 0.1 µM, first compound 3.16 µM); 8.92% (second compound 0.1 µM, first compound 10 µM). Moreover, the viability, T/C runs as follows: (second compound 0.316 µM, first compound 0.0316 µM) 42.3%; (second compound 0.316 µM, first compound 0.1 µM) 44.7%; (second compound 0.316 µM, first compound 0.316 µM) 45.2%; (second compound 0.316 µM, first compound 1 µM) 40.5%; (second compound 0.316 µM, first compound 3.16 µM) 33.1%; (second compound 0.316 µM, first compound 10 µM) 8.52%. In addition, the viability, T/C reads like this: (second compound 1 µM, first compound 0.0316 µM) 4.91%; (second compound 1 µM, first compound 0.1 µM) 5.46%; (second compound 1 µM, first compound 0.316 µM) 4.96%; (second compound 1 µM, first compound 1 µM) 5.32%; (second compound 1 µM, first compound 3.16 µM) 5.68%; (second compound 1 µM, first compound 10 µM) 5.62%. Moreover, the viability, T/C was 7.02% (second compound 3.16 µM, first compound 0.0316 µM); 8.45% (second compound 3.16 µM, first compound 0.1 µM); 6.23% (second compound 3.16 µM, first compound 0.316 µM); 8.2% (second compound 3.16 µM, first compound 1 µM); 10.1% (second compound 3.16 µM, first compound 3.16 µM); 9.62% (second compound 3.16 µM, first compound 10 µM). In addition, the viability, T/C was 2.81% (second compound 10 µM, first compound 0.0316 µM); 2.91% (second compound 10 µM, first compound 0.1 µM); 2.02% (second compound 10 µM, first compound 0.316 µM); 2.43% (second compound 10 µM, first compound 1 µM); 2.11% (second compound 10 µM, first compound 3.16 µM); 1.29% (second compound 10 µM, first compound 10 µM).
